From PubChem BioAssay (NCI)
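Each compound was tested at five concentrations against cells in 96-well plates for 48 hours. Definition used: TGI = concentration required for complete inhibition of growth.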

Experiments:
Assay in all cases: NCI tumour cell line growth inhibition, 48 h
CAKI-1 renal = test system: CAKI-1 renal
COLO 205 colon = test system: COLO 205 colon
SNB-78 CNS = test system: SNB-78 CNS
U251 CNS = test system: U251 CNS
SNB-75 CNS = test system: SNB-75 CNS
SK-MEL-5 melanoma = test system: SK-MEL-5 melanoma
RXF 393 renal = test system: RXF 393 renal
HT29 colon = test system: HT29 colon
UACC-62 melanoma = test system: UACC-62 melanoma
HCT-116 colon = test system: HCT-116 colon
IGROV1 ovarian = test system: IGROV1 ovarian
CCRF-CEM leukemia = test system: CCRF-CEM leukemia
HOP-62 NSCLC = test system: HOP-62 NSCLC
M14 melanoma = test system: M14 melanoma
NCI-H460 lung = test system: NCI-H460 lung
SF-295 CNS = test system: SF-295 CNS
OVCAR-4 ovarian = test system: OVCAR-4 ovarian
M19-MEL melanoma = test system: M19-MEL melanoma
KM12 colon = test system: KM12 colon
DMS 114 small cell lung = test system: DMS 114 small cell lung
HOP-92 NSCLC = test system: HOP-92 NSCLC
SK-MEL-28 melanoma = test system: SK-MEL-28 melanoma
SF-268 CNS = test system: SF-268 CNS
RPMI-8226 leukemia = test system: RPMI-8226 leukemia
SN12C renal = test system: SN12C renal
UACC-257 melanoma = test system: UACC-257 melanoma
HCC-2998 colon = test system: HCC-2998 colon
DMS 273 small cell lung = test system: DMS 273 small cell lung
EKVX NSCLC = test system: EKVX NSCLC
NCI-H23 lung = test system: NCI-H23 lung
SNB-19 CNS = test system: SNB-19 CNS
SR leukemia = test system: SR leukemia
LOX IMVI melanoma = test system: LOX IMVI melanoma
NCI-H522 lung = test system: NCI-H522 lung
A498 renal = test system: A498 renal
MALME-3M melanoma = test system: MALME-3M melanoma
SK-OV-3 ovarian = test system: SK-OV-3 ovarian
SW-620 colon = test system: SW-620 colon
UO-31 renal = test system: UO-31 renal
TK-10 renal = test system: TK-10 renal
HCT-15 colon = test system: HCT-15 colon
LXFL 529 NSCLC = test system: LXFL 529 NSCLC
OVCAR-8 ovarian = test system: OVCAR-8 ovarian
ACHN renal = test system: ACHN renal
A549 NSCLC = test system: A549 NSCLC
SF-539 CNS = test system: SF-539 CNS
HL-60(TB) leukemia = test system: HL-60(TB) leukemia
SK-MEL-2 melanoma = test system: SK-MEL-2 melanoma
786-0 renal = test system: 786-0 renal
OVCAR-3 ovarian = test system: OVCAR-3 ovarian
MOLT-4 leukemia = test system: MOLT-4 leukemia
K-562 leukemia = test system: K-562 leukemia
OVCAR-5 ovarian = test system: OVCAR-5 ovarian
KM20L2 colon = test system: KM20L2 colon
XF 498 CNS = test system: XF 498 CNS
DLD-1 colon = test system: DLD-1 colon
NCI-H226 lung = test system: NCI-H226 lung
HOP-18 NSCLC = test system: HOP-18 NSCLC

Q: For `Cc1c(N2CCOCC2)nc2ccc(Cl)cc2c1-c1ccccc1`, which TGI (CAKI-1 renal) is on record?
A: > 100 µM

Q: And the TGI (COLO 205 colon)?
A: > 100 µM

Q: What about the TGI (SNB-78 CNS) of the same compound?
A: > 100 µM

Q: And the TGI (U251 CNS)?
A: > 100 µM

Q: And the TGI (SNB-75 CNS)?
A: > 100 µM

Q: And the TGI (SK-MEL-5 melanoma)?
A: 65.7 µM

Q: And the TGI (RXF 393 renal)?
A: > 100 µM

Q: And the TGI (HT29 colon)?
A: > 100 µM

Q: What about the TGI (UACC-62 melanoma) of the same compound?
A: > 100 µM

Q: And the TGI (HCT-116 colon)?
A: > 100 µM

Q: What about the TGI (IGROV1 ovarian) of the same compound?
A: > 100 µM

Q: And the TGI (CCRF-CEM leukemia)?
A: > 100 µM

Q: What about the TGI (HOP-62 NSCLC) of the same compound?
A: > 100 µM

Q: What about the TGI (M14 melanoma) of the same compound?
A: > 100 µM

Q: What about the TGI (NCI-H460 lung) of the same compound?
A: > 100 µM

Q: And the TGI (SF-295 CNS)?
A: > 100 µM

Q: And the TGI (OVCAR-4 ovarian)?
A: > 100 µM

Q: What about the TGI (M19-MEL melanoma) of the same compound?
A: > 100 µM

Q: What about the TGI (KM12 colon) of the same compound?
A: > 100 µM

Q: What about the TGI (DMS 114 small cell lung) of the same compound?
A: > 100 µM

Q: What about the TGI (HOP-92 NSCLC) of the same compound?
A: > 100 µM

Q: What about the TGI (SK-MEL-28 melanoma) of the same compound?
A: > 100 µM

Q: What about the TGI (SF-268 CNS) of the same compound?
A: > 100 µM

Q: What about the TGI (RPMI-8226 leukemia) of the same compound?
A: > 100 µM

Q: What about the TGI (SN12C renal) of the same compound?
A: > 100 µM

Q: What about the TGI (UACC-257 melanoma) of the same compound?
A: > 100 µM

Q: And the TGI (HCC-2998 colon)?
A: > 100 µM

Q: And the TGI (DMS 273 small cell lung)?
A: > 100 µM

Q: What about the TGI (EKVX NSCLC) of the same compound?
A: > 100 µM

Q: What about the TGI (NCI-H23 lung) of the same compound?
A: > 100 µM

Q: What about the TGI (SNB-19 CNS) of the same compound?
A: > 100 µM

Q: And the TGI (SR leukemia)?
A: > 100 µM

Q: And the TGI (LOX IMVI melanoma)?
A: > 100 µM

Q: What about the TGI (NCI-H522 lung) of the same compound?
A: > 100 µM

Q: What about the TGI (A498 renal) of the same compound?
A: > 100 µM

Q: And the TGI (MALME-3M melanoma)?
A: > 100 µM

Q: What about the TGI (SK-OV-3 ovarian) of the same compound?
A: > 100 µM

Q: What about the TGI (SW-620 colon) of the same compound?
A: > 100 µM

Q: What about the TGI (UO-31 renal) of the same compound?
A: > 100 µM

Q: And the TGI (TK-10 renal)?
A: > 100 µM

Q: And the TGI (HCT-15 colon)?
A: > 100 µM

Q: What about the TGI (LXFL 529 NSCLC) of the same compound?
A: > 100 µM

Q: And the TGI (OVCAR-8 ovarian)?
A: > 100 µM

Q: What about the TGI (ACHN renal) of the same compound?
A: > 100 µM

Q: And the TGI (A549 NSCLC)?
A: > 100 µM

Q: What about the TGI (SF-539 CNS) of the same compound?
A: > 100 µM

Q: What about the TGI (HL-60(TB) leukemia) of the same compound?
A: > 100 µM

Q: And the TGI (SK-MEL-2 melanoma)?
A: > 100 µM

Q: And the TGI (786-0 renal)?
A: > 100 µM

Q: And the TGI (OVCAR-3 ovarian)?
A: > 100 µM

Q: What about the TGI (MOLT-4 leukemia) of the same compound?
A: > 100 µM

Q: And the TGI (K-562 leukemia)?
A: > 100 µM

Q: Which TGI (CAKI-1 renal) does the source give for `CN(C)c1nc(Oc2nc(N(C)C)nc(N(C)C)n2)nc(N(C)C)n1` here?
A: > 100 µM

Q: And the TGI (COLO 205 colon)?
A: > 100 µM

Q: And the TGI (SNB-78 CNS)?
A: > 100 µM

Q: What about the TGI (U251 CNS) of the same compound?
A: > 100 µM

Q: And the TGI (SNB-75 CNS)?
A: > 100 µM

Q: What about the TGI (SK-MEL-5 melanoma) of the same compound?
A: > 100 µM

Q: And the TGI (RXF 393 renal)?
A: > 100 µM

Q: What about the TGI (HT29 colon) of the same compound?
A: > 100 µM

Q: What about the TGI (UACC-62 melanoma) of the same compound?
A: > 100 µM

Q: What about the TGI (HCT-116 colon) of the same compound?
A: > 100 µM

Q: And the TGI (IGROV1 ovarian)?
A: > 100 µM

Q: What about the TGI (OVCAR-5 ovarian) of the same compound?
A: > 100 µM

Q: And the TGI (KM20L2 colon)?
A: > 100 µM

Q: What about the TGI (XF 498 CNS) of the same compound?
A: > 100 µM

Q: What about the TGI (CCRF-CEM leukemia) of the same compound?
A: > 100 µM

Q: And the TGI (M14 melanoma)?
A: > 100 µM

Q: What about the TGI (NCI-H460 lung) of the same compound?
A: > 100 µM

Q: What about the TGI (SF-295 CNS) of the same compound?
A: > 100 µM

Q: What about the TGI (OVCAR-4 ovarian) of the same compound?
A: > 100 µM

Q: And the TGI (M19-MEL melanoma)?
A: > 100 µM

Q: And the TGI (KM12 colon)?
A: > 100 µM

Q: What about the TGI (DMS 114 small cell lung) of the same compound?
A: > 100 µM

Q: What about the TGI (HOP-92 NSCLC) of the same compound?
A: > 100 µM

Q: What about the TGI (DLD-1 colon) of the same compound?
A: > 100 µM

Q: And the TGI (SK-MEL-28 melanoma)?
A: > 100 µM

Q: What about the TGI (SF-268 CNS) of the same compound?
A: > 100 µM

Q: What about the TGI (RPMI-8226 leukemia) of the same compound?
A: > 100 µM

Q: What about the TGI (SN12C renal) of the same compound?
A: > 100 µM

Q: What about the TGI (UACC-257 melanoma) of the same compound?
A: > 100 µM

Q: And the TGI (HCC-2998 colon)?
A: > 100 µM

Q: And the TGI (DMS 273 small cell lung)?
A: > 100 µM

Q: And the TGI (EKVX NSCLC)?
A: > 100 µM

Q: What about the TGI (NCI-H23 lung) of the same compound?
A: > 100 µM

Q: What about the TGI (SNB-19 CNS) of the same compound?
A: > 100 µM

Q: What about the TGI (SR leukemia) of the same compound?
A: > 100 µM

Q: And the TGI (NCI-H226 lung)?
A: > 100 µM

Q: And the TGI (LOX IMVI melanoma)?
A: > 100 µM

Q: What about the TGI (NCI-H522 lung) of the same compound?
A: > 100 µM

Q: And the TGI (A498 renal)?
A: > 100 µM

Q: What about the TGI (MALME-3M melanoma) of the same compound?
A: > 100 µM

Q: And the TGI (SK-OV-3 ovarian)?
A: > 100 µM

Q: What about the TGI (SW-620 colon) of the same compound?
A: > 100 µM

Q: And the TGI (UO-31 renal)?
A: > 100 µM

Q: What about the TGI (TK-10 renal) of the same compound?
A: > 100 µM

Q: What about the TGI (HCT-15 colon) of the same compound?
A: > 100 µM

Q: What about the TGI (LXFL 529 NSCLC) of the same compound?
A: > 100 µM

Q: And the TGI (OVCAR-8 ovarian)?
A: > 100 µM

Q: What about the TGI (ACHN renal) of the same compound?
A: > 100 µM

Q: And the TGI (A549 NSCLC)?
A: > 100 µM

Q: What about the TGI (SF-539 CNS) of the same compound?
A: > 100 µM

Q: What about the TGI (HOP-18 NSCLC) of the same compound?
A: > 100 µM

Q: What about the TGI (HL-60(TB) leukemia) of the same compound?
A: > 100 µM

Q: What about the TGI (SK-MEL-2 melanoma) of the same compound?
A: > 100 µM

Q: And the TGI (786-0 renal)?
A: > 100 µM

Q: What about the TGI (OVCAR-3 ovarian) of the same compound?
A: > 100 µM

Q: What about the TGI (MOLT-4 leukemia) of the same compound?
A: > 100 µM

Q: What about the TGI (K-562 leukemia) of the same compound?
A: > 100 µM
